Series [1] deals with astrocyte-enriched cortical cell cultures. Nature of the series: PGE2 release (ELISA) from astrocyte-enriched cortical cell cultures exposed to PAF analogs, related lipids or AA. The series is classed as cell-based, rat. The protocol: (§1) All experimental protocols were approved by the Massachusetts Institute of Technology institutional review committee and meet the guidelines of the National Institutes of Health. Dissociated astrocytes were cultured from cortices of postnatal day 1-2 rat pups (as described by K. D. McCarthy, et al., Preparation of separate astroglial and oligodendroglial cell cultures from rat cerebral tissue, J. Cell Biol. 85 (1980) 890-902, with minor modifications R. K. K. Lee, et al., Metabolic glutamate receptors increase amyloid precursor protein processing in astrocytes: inhibition by cyclic AMP, J. Neurochem. 68 (1997) 1830-1835.) In brief, cells from dissociated cortices were plated onto poly-L-lysine coated 35- or 100 mm culture dishes. The initial culture media, minimal essential medium (MEM, Gibco-Life Technologies; Rockville, Md.) containing 15% horse serum (BioWhittaker; Walkersville, Md.), were aspirated 2-5 h after plating to remove unattached cells and debris, and replaced with MEM containing 5% fetal bovine serum (FBS, BioWhittaker; Walkersville, Md.). Half the medium was replaced with MEM/5% FBS twice weekly. Astrocytes were kept at 37° C. in a humidified 5% CO2/95% air incubator for 9-15 days, by which time the cultures were confluent and could be used for experiments.
(§2) Mc-PAF (Biomol; Plymouth Meeting, PA) was dissolved in methanol at a stock concentration of 10 mM. PAF-16, PAF-18, lyso-PAF, AA (Cayman Chemicals), lyso-PC and PC (Sigma) were dissolved in ethanol at stock concentrations of 10 mM. All stock solutions of lipids were stored at −80° C. and were used within 6 weeks of reconstitution. BN 52021 and CV 6209 (Biomol) were dissolved in ethanol. These PAF antagonists were stored at −20° C. in stock concentrations of 100 mM. BN 50730 (Biomeasure; Milford, Mass.) was dissolved in 45% hydroxy-B-cyclodextrin (HBC). All agents were diluted in warned serum-free medium prior to cell stimulation. Equal amounts of vehicle was added to control cells.
(§3) Cells used for all experiments were established in vitro 9-15 days prior to use in experiments and were over 95% confluent. Serum-containing media were changed every 3-4 days. Cells were serum-deprived 24 hours prior to experimental treatments. Where treatment with PAF antagonists is indicated, these compounds were added 30 minutes prior to the addition of other agents.
(§4) PGE2 levels were measured by ELISA according to manufacturer's instructions (Cayman Chemicals, Ann Arbor, Mich.). Since the amount of PGE2 in fresh medium was negligible, (J. Luo, et al., Transforming growth factor B1 regulates the expression of cyclooxygenase in cultured cortical astrocytes and neurons, J. Neurochem. 71 (1998) 526-534), direct assays of the PGE2 concentration in cell-conditioned medium was used as a measurement of PGE2 secretion by cultured cells. Results were derived from at least 3 separate experiments, assayed in duplicate or triplicate (n=6-8). The reliable detection limit of this assay (i.e. sensitivity) averaged 14+/−6 pg of PGE2.
For orientation: In an ELISA, binding on a coated surface is turned into a signal by an enzyme label.

The next series relates to COX-1. Nature of the series: COX-1 protein level after mc-PAF stimulation (immunocytochemical and Western blot analyses). The class given is cell-based, rat. Particulars: within 30 min of mc-PAF stimulation; data not shown. In general terms: A western blot detects proteins with antibodies after separation by electrophoresis.
Another series relates to COX-2. Nature of the series: COX-2 protein level after mc-PAF stimulation (immunocytochemical and Western blot analyses). The class given is cell-based, rat. Particulars: within 30 min of mc-PAF stimulation; data not shown.
The subject of series [2] is primary cortical astrocytes. Nature of the series: Effect of COX inhibitors on mc-PAF-induced PGE2 release from primary astrocytes (Example 3). The class given is cell-based, rat. Particulars: mc-PAF 0.001 to 1 μM, 30 min. On the procedure:
Mc-PAF (Cayman Chemical, Ann Arbor, Mich.) was dissolved in ethanol at a stock concentration of 10 mM. Indomethacin, piroxicam, NS-398 (Biomol; Plymouth Meeting, Mass.), and SC-560 (Cayman Chemical) were dissolved in 45% hydroxy-β-cyclodextrin (HBC; Sigma, St. Louis, Mo.). Cells were serum-deprived for 24 hrs prior to experimental treatments to induce quiescence. Where treatment with inhibitors is indicated, these compounds were added 30 min prior to the addition of mc-PAF.
Direct assay of the PGE2 concentration in cell-conditioned medium was used as an index of PGE2 secretion by primary astrocytes. PGE2 levels were measured by ELISA according to manufacturer's instructions (Cayman Chemicals, Ann Arbor, Mich.), as described.
Results were derived from at least 3 separate experiments, assayed in duplicate or triplicate (n=6−8). Data were expressed as means+/−SEMs. Statistical analyses were performed using ANOVAs for comparisons between groups, followed by Fischer's PLSD post hoc comparisons by means contrast. p values <0.05 were considered statistically significant.

The subject of series [3] is astrocyte-enriched cortical cell cultures.
The subject of series [4] is formalin-induced nociception. Nature of the series: Formalin test, intrathecal injection (spinal cord). The series is classed as in vivo, rat. Particulars: for nociceptive response: injected intrathecally (into the spinal cord), 10, 1 or 0.1 μg, 20 minutes prior to formalin. The protocol: (§5) The day prior to formalin testing, rats were placed in the boxes for a 15 min habituation period. The day of testing, vehicle or PAF antagonists were administered and the rats were placed in the boxes for 20 min. At this time, animals were removed from the box, and 50 μl of 1% formalin (0.4% formaldehyde) was injected subcutaneously into the plantar surface of the right hind paw with a 27-gauge needle. Immediately after injection, each animal was exposed to the open field box for 60 min and the amount of time they elevated their injected paw was recorded as described for previous Examples.
(§6) Data were expressed as means+/−SEM and p values <0.05 were considered statistically significant. Experimental groups were compared using a one-way analysis of variance (ANOVA) with repeated measures (5 min blocks of time) followed by Scheffe's post-hoc test. Independent t-tests were used to assess the effects of the PAF antagonists on the individual 5 min bins of time post-formalin as well.

Series [5] concerns astrocyte-enriched cortical cell cultures. Nature of the series: Effect of PAF antagonists on mc-PAF-, lyso-PAF- and AA-induced PGE2 release from astrocytes. The class given is cell-based, rat. Particulars: for mc-PAF-induced PGE2 release: antagonist added 30 min before mc-PAF (1 μM), 30 min, BN 50730 0.1-100 μM, BN 52021 and CV 6209 1-50 μM; for AA-induced PGE2 release / lyso-PAF-induced PGE2 release: antagonist added 30 min prior. On the procedure: as §1, §2, §3, §4

Series [6] has as its system formalin-induced nociception. Nature of the series: Formalin test, intra-hippocampal injection. The class given is in vivo, rat. On the procedure: as §5
(§7) Upon completion of testing, animals were overdosed with sodium pentobarbitol and perfused with saline followed by 10% formalin solution. Brains were removed, fixed, and cut into 20-μm coronal sections throughout the cannula tract. Sections were then mounted, stained with cresyl violet, and coverslipped. […] The behavioral data for 4 rats were discarded from the study due to incorrect cannulae placement.
as §6

The subject of series [7] is formalin-induced nociception. Nature of the series: Formalin test, systemic (i.p.) administration. Particulars: for nociceptive response (paw elevation time), early phase: 1-10 minutes post-formalin; for nociceptive response (paw elevation time), early phase / nociceptive response (paw elevation time), late phase: 10, 1 or 0.1 mg/kg i.p. 40 minutes prior to formalin; for nociceptive response (paw elevation time), late phase: 10-60 min post-formalin, vs control-treated rats; for dose-response relationship of decrease in nociceptive behavior: three doses 10, 1, 0.1 mg/kg i.p. The class given is in vivo, rat. On the procedure: Sixty male Sprague Dawley rats weighing 300-350 g (Taconic Labs, Canada) were housed in groups of 2-3 per cage, in polycarbonate cages. Animals were maintained under standard environmental conditions (room temperature: 20-20° C.; relative humidity: 55-60%; light/dark schedule: 12/12 hr) with free access to standard laboratory chow and tap water.
BN 50730 (Biomeasure; Milford, Mass.) and BN 52021 (Biomol) were dissolved in 45% hydroxypropyl-B-cyclodextrin in distilled water (HBC). Drugs (at doses of 10, 1, or 0.1 mg/kg) or vehicle were administered intraperitoneally (i.p.) 40 minutes prior to formalin injection. The doses chosen were based on those found to produce central effects after their peripheral administration.
Experiments were carried out in accordance with The National Institutes of Health Guide for the Care and Use of Laboratory Animals. Behavioral testing was carried out in a blind manner. Nociceptive responses were examined in the formalin test described previously, (Dubisson et al., The formalin test: a quantitative study of the analgesic effects of morphine, meperidine, and brain stimulation of rats and cats. Pain 4 (1977) 161-174). In brief, animals were placed in a clear Plexiglas® formalin test box (30 cm×30 cm×30 cm), with a mirror positioned at a 45° angle below the floor allowing for unobstructed observation of the animal's paw. Following a 10-min habituation period, animals were removed from the formalin box, at which time 50 μl of 1% formalin was injected subcutaneously (s.c.) into the plantar surface of the right hind paw with a 27-gauge needle. The amount of time that each rat elevated the injected paw was recorded in five-min intervals during the […] period following formalin injection. Each animal was used once.
The 60-min formalin test produced a biphasic response consisting of an initial, rapidly decaying acute phase (early phase, 1-10 minutes after injection) followed by a slow rising and long-lived tonic phase (late phase, 15-60 minutes after injection). Typically animals elevated their paws following injection (i.e. the early phase) followed by a reduction in this behavior. Approximately 15-20 minutes after injection, the inflammatory late phase began, and animals again elevated their paws to varying degrees for the remainder of the testing period. The amount of time animals elevated their injected paw was used as a behavioral measure of pain.
Data were expressed as means+/−SEM, and p values <0.05 were considered statistically significant. Treatment groups were compared with vehicle-controls using one-way analysis of variance (ANOVA) followed by Fischer's PLSD post-hoc test to compare between groups if overall significance was found by ANOVA.

The test system of series [8] is formalin-induced nociception. Nature of the series: Formalin test, injection into the lateral ventricle. The class given is in vivo, rat. Particulars: for nociceptive response (paw elevation), group effect: lateral ventricle, 10, 1 or 0.1 μg, 20 min prior to formalin, ANOVA. The protocol: Animals were anesthetized (50 mg/kg sodium pentobarbitol), and unilateral guide cannulae (23 gauge) were implanted into the lateral ventricle. The guide cannulae were attached to the skull using jeweler's screws and dental acrylic. After surgery, stylets were inserted and left in place to ensure cannula patency. The formalin test was conducted 7-10 days post-surgery.
as §5, §7, §6

SMILES strings stand for the structures. Entries after “also recorded” stand apart in the source; their conditions may differ. Like-named read-outs stand apart in the source and are kept apart here. A value given as a limit tells only on which side of the number the result lay.

Consider `CCCCCCCCCCCCCCCCOC[C@H](COP(=O)([O-])OCC[N+](C)(C)C)OC(=O)NC` [mc-PAF, methylcarbamyl-PAF], for which, in series [1] (1 μM mc-PAF), the “time at which PGE2 levels returned to baseline” value is at most 12 h; the “time of maximum mobilization of PGE2” value is 30 min; the “time of second, smaller peak of PGE2 release” value came out at 8 h; the “time to first observed increase in PGE2 release” value is at most 5 min. The “PGE2 release over time” value in series [1] (1 μM mc-PAF, 37° C., various times) is listed as “time-dependent increase”. The “PGE2 release into the conditioned media” value in series [1] (30 min, 37° C., various concentrations) was “concentration-dependent increases”. Besides, the COX-1 protein levels entry in the series with COX-1 is on record as “did not increase”. In the series with COX-2, the COX-2 protein levels entry was “did not increase”. In series [2], the “release of PGE2 into the conditioned media” value is “concentration-dependent increases”. Further, the toxicity to cells result in [3] (1 μM mc-PAF) was “does not appear to have toxic effects”. Further, the toxicity to cells result in [3] (10 μM mc-PAF, 24 hours) is reported as “cytologic evidence of toxicity”.
`C[C@@H]1C(=O)O[C@H]2[C@H](O)[C@@]34[C@H]5C[C@@H](C(C)(C)C)[C@]36[C@@H](OC(=O)[C@@H]6O)O[C@@]4(C(=O)O5)[C@@]12O` [BN 52021, ginkolide B]: in [4], the nociceptive response result was “not”. Moreover, in [5], the “mc-PAF-induced PGE2 release” value is “no significant effect; also recorded: did not significantly influence; also recorded: do not attenuate”, the “AA-induced PGE2 release” value is listed as “had no effect” and the “lyso-PAF-induced PGE2 release” value was “had no effect”. Moreover, in series [5] (no mc-PAF), the “PGE2 release, antagonist administered alone” value is reported as “PGE2 release was increased”. The “nociceptive behavior during the tonic or late phase” value in series [6] is “decreases nociceptive behavior”. In addition, in [7], the “nociceptive response (paw elevation time), early phase” value is reported as “not significantly affected”; the “nociceptive response (paw elevation time), late phase” value is given as “significantly shorter times; also recorded: decreased nociceptive behavior”; the “dose-response relationship of decrease in nociceptive behavior” value is “a dose-response relationship was not revealed”. Moreover, the “comparative efficacy when administered to the brain” value in [8] (administered to the brain (Example 4)) is reported as “more effective than BN 50730”. Moreover, the “paw elevation at 50 min post-formalin” value in [8] (lateral ventricle, 1 μg) is “decreased paw elevation”. In addition, the “nociceptive response (paw elevation), group effect” value in series [8] was “significantly affected”. In series [8] (lateral ventricle, 10 and 1 μg, independent t-tests), the “levels of paw elevation between 30 and 45 min post-formalin” value is given as “significantly attenuated”. Further, the “nociceptive responses compared with control-treated rats” value in [8] (lateral ventricle, 10 or 1 μg, Scheffe's post-hoc) was “significantly diminished”.
As to `COc1ccc(NC(=S)N2CCc3c(sc4c3C(c3ccccc3Cl)=NCc3nnc(C)n3-4)C2)cc1` [BN 50730], the “comparative efficacy when administered to the spinal cord” value in series [4] (administered to the spinal cord (Example 4)) was “more effective than BN 52021”. The nociceptive response result in series [4] is recorded as “decreased the nociceptive response”. Besides, in series [5], the “mc-PAF-induced PGE2 release” value was “attenuates; also recorded: prevented; also recorded: completely abolished”, the “AA-induced PGE2 release” value is recorded as “significantly attenuated; also recorded: only attenuated; also recorded: attenuates” and the “lyso-PAF-induced PGE2 release” value is listed as “significantly attenuated; also recorded: completely abolished; also recorded: attenuates”. Also, the “basal release of PGE2” value in series [5] (higher concentrations of BN 50730) is “reduce the basal release of PGE2”. Besides, the “nociceptive behavior during the tonic or late phase” value in series [6] is recorded as “not”. In series [7], the “nociceptive response (paw elevation time), early phase” value is on record as “not significantly affected”; the “nociceptive response (paw elevation time), late phase” value is given as “significantly shorter paw elevation times; also recorded: decreased nociceptive behavior”; the “dose-response relationship of decrease in nociceptive behavior” value is recorded as “a dose-response relationship was not revealed”. Further, the “nociceptive response (paw elevation), group effect” value in series [8] is “not significantly affected”.

These data come from US20050032713A1, “Platelet-activating factor antagonists as analgesic, anti-inflammatory, uterine contraction inhibiting, and anti-tumor agents” (priority 2002, published 2005).
